Results on 17 compounds are retold here after US20130053387A1, “DESAZADESFERROTHIOCIN AND DESAZADESFERROTHIOCIN POLYETHER ANALOGUES AS METAL CHELATION AGENTS” (FerroKin BioScience, Inc., priority 2010, published 2013).

Data set [1] in a line: physchem. The method, then: Measurements were taken via LC/MS.
Stir bars were removed and samples centrifuged at 15,000 g for 15 minutes to separate the phases, and pipette and syringe were used to remove the upper (octanol) and lower (buffer) phases to empty tubes, respectively. Aliquots of 5 ni, were taken from upper phases and diluted with 495 ni, of methanol. Aliquots of 50 ni, were taken from lower phases and diluted with 450 ni, of methanol. Reference solutions of progesterone or metopolol were also prepared and tested as standards.

Data set [2] in a line: Solubility determination in PBS by LC/MS/MS. Conditions: for solubility at 2 h: kinetic from dmso stock.
On the set-up of data set [3]: concentration or dose not given beside the values. Conditions: cited from earlier work.
On the set-up of data set [4]: concentration or dose not given beside the values. Particulars: cited from earlier work. This is another data set of the same source.
The nature of data set [5]: physchem. Particulars: 25 °C, kinetic from dmso stock.
The conditions of data set [6]: rats, 300 μmol/kg intraperitoneally immediately after uranyl acetate; cited from earlier work.
[7] abbreviates: PBS pH 4.0, 25 °C, pH 4, aqueous buffer.
The mark [8] stands for this setting: PBS pH 7.4, 25 °C, pH 7.4, aqueous buffer.

In brackets after ≈: the same amount, converted by molar mass. Like-named read-outs stand apart in the source and are kept apart here.

Broadly, the logD is the decadic logarithm of the distribution of all forms, ionised or not, between an organic phase and buffer at a given pH. What is called solubility is the concentration that dissolves in the medium under given conditions. Regarding `COCCOCCOc1ccc(C2=NC(C)(C(=O)O)CO2)c(O)c1` (centres unmarked) [Example 1, 2-(2-hydroxy-4-(2-(2-methoxyethoxy)ethoxy)phenyl)-4-methyl-4,5-dihydrooxazole-4-carboxylic acid], the logD at 1 h in the data set “physchem [1]” (pH 7.4) was -1.39. Besides, the solubility at 2 h stood at 309 µM (≈ 105 µg/mL) in data set [2] (setting [7]) and 312 µM (≈ 106 µg/mL) in data set [2] (setting [8]).
As to `COCCOCCOCCOc1ccc(C2=NC(C)(C(=O)O)CO2)c(O)c1` (centres unmarked) [Example 2, 2-(2-hydroxy-4-(2-(2-(2-methoxyethoxy)ethoxy)ethoxy)phenyl)-4-methyl-4,5-dihydrooxazole-4-carboxylic acid], the logD at 1 h in the data set “physchem [1]” (pH 7.4) is -1.77. Besides, the solubility at 2 h came out at 297 µM (≈ 114 µg/mL) in data set [2] (setting [7]) and 291 µM (≈ 112 µg/mL) in data set [2] (setting [8]).
In the same order, the values of `COCCOCCOc1ccc(C2=NC(C)(C(=O)O)CN2)c(O)c1` (centres unmarked) [Example 3, 2-(2-hydroxy-4-(2-(2-methoxyethoxy)ethoxy)phenyl)-4-methyl-4,5-dihydro-1H-imidazole-4-carboxylic acid] are -1.87, 302 µM (≈ 102 µg/mL) and 299 µM (≈ 101 µg/mL).
In the same order, the values of `COCCOCCOCCOc1ccc(C2=NC(C)(C(=O)O)CN2)c(O)c1` (centres unmarked) [Example 4, 2-(2-hydroxy-4-(2-(2-(2-methoxyethoxy)ethoxy)ethoxy)phenyl)-4-methyl-4,5-dihydro-1H-imidazole-4-carboxylic acid] are -2.13, 313 µM (≈ 120 µg/mL) and 316 µM (≈ 121 µg/mL).
With `COCCOCCOc1cccc(C2=NC(C)(C(=O)O)CN2)c1O` (centres unmarked) [Example 5, 2-(2-hydroxy-3-(2-(2-methoxyethoxy)ethoxy)phenyl)-4-methyl-4,5-dihydro-1H-imidazole-4-carboxylic acid], the logD at 1 h in the data set “physchem [1]” (pH 7.4) is -2.09. The solubility at 2 h in data set [2] (setting [7]) is 306 µM (≈ 104 µg/mL); in data set [2] (setting [8]), 311 µM (≈ 105 µg/mL).
For the compound `COCCOCCOCCOc1cccc(C2=NC(C)(C(=O)O)CN2)c1O` (centres unmarked) [Example 6, 2-(2-hydroxy-3-(2-(2-(2-methoxyethoxy)ethoxy)ethoxy)phenyl)-4-methyl-4,5-dihydro-1H-imidazole-4-carboxylic acid], the logD at 1 h in “physchem [1]” (pH 7.4) was -1.98. Moreover, the solubility at 2 h in data set [2] (setting [7]) and in data set [2] (setting [8]) was 311 µM (≈ 119 µg/mL) in each case.
For `COCCOCCOc1ccc(-n2ccc(C(=O)O)n2)c(O)c1` [Example 7, 1-(2-hydroxy-4-(2-(2-methoxyethoxy)ethoxy)phenyl)-1H-pyrazole-3-carboxylic acid], the logD at 1 h in “physchem [1]” (pH 7.4) was -2.24. The solubility at 2 h in data set [2] (setting [7]) was 294 µM (≈ 94.7 µg/mL); in data set [2] (setting [8]) it was 297 µM (≈ 95.7 µg/mL).
Regarding `COCCOCCOCCOc1ccc(-n2ccc(C(=O)O)n2)c(O)c1` [Example 8, 1-(2-hydroxy-4-(2-(2-(2-methoxyethoxy)ethoxy)ethoxy)phenyl)-1H-pyrazole-3-carboxylic acid], in “physchem [1]” (pH 7.4), the logD at 1 h is -2.14. For the same compound, the results for the solubility at 2 h in data set [2] (setting [7]) and in data set [2] (setting [8]) were 300 µM (≈ 110 µg/mL) and 298 µM (≈ 109 µg/mL), respectively.
Take `COCCOCCOc1ccc(C2=N[C@@](C)(C(=O)O)CS2)c(O)c1` [Example A, (S)-2-(2-hydroxy-4-(2-(2-methoxyethoxy)ethoxy)phenyl)-4-methyl-4,5-dihydrothiazole-4-carboxylic acid]: the logD at 1 h in the data set “physchem [1]” (pH 7.4) was -1.14. In addition, the “Rodent ICE” value in data set [3] was 26.7 ± 4.7%. Also, the “Primate ICE” value in data set [4] (capsule) was 26.3 ± 9.9%; in data set [4] (sodium salt), 28.7 ± 12.4%. In addition, the solubility at 2 h stood at 309 µM (≈ 110 µg/mL) in the data set “physchem [5]” (pH 4, aqueous buffer) and 305 µM (≈ 108 µg/mL) in the data set “physchem [5]” (pH 7.4, aqueous buffer).
For `COCCOCCOCCOc1ccc(C2=N[C@@](C)(C(=O)O)CS2)c(O)c1` [Example B, (S)-2-(2-hydroxy-4-(2-(2-(2-methoxyethoxy)ethoxy)ethoxy)phenyl)-4-methyl-4,5-dihydrothiazole-4-carboxylic acid], the logD at 1 h in “physchem [1]” (pH 7.4) was -1.45. The “Rodent ICE” value in data set [3] is reported as 5.5 ± 1.9%. For the same compound, the “Primate ICE” value in data set [4] is listed as 25.4 ± 7.4%. In addition, in data set [6], the “% Dose Cleared” value is reported as 22%, the “Uranium Excretion” value is 626 ± 123 µg/kg and the “Uranium Excretion vs. Control” value is on record as 2.2. Further, the concentration in solution in data set [2] (setting [7]) (solubility at 2 h) came to 307 µM (≈ 123 µg/mL). In data set [2] (setting [8]), the concentration in solution (solubility at 2 h) came to 313 µM (≈ 125 µg/mL).
Regarding `COCCOCCOCCOCCOc1ccc(C2=N[C@@](C)(C(=O)O)CS2)c(O)c1` [Example C, (S)-2-(4-(2,5,8,11-tetraoxamidecan-13-yloxy)-2-hydroxyphenyl)-4-methyl-4,5-dihydrothiazole-4-carboxylic acid], the “Rodent ICE” value in data set [3] is given as 12.0 ± 1.5%. In addition, the “Primate ICE” value in data set [4] was 9.8 ± 1.9%.
`COCCOCCOc1cccc(C2=N[C@@](C)(C(=O)O)CS2)c1O` [Example D, (S)-2-(2-hydroxy-3-(2-(2-methoxyethoxy)ethoxy)phenyl)-4-methyl-4,5-dihydrothiazole-4-carboxylic acid]: the “Rodent ICE” value in data set [3] is recorded as 15.1 ± 2.0%. Further, in data set [4], the “Primate ICE” value was 22.5 ± 6.4%.
`COCCOCCOCCOc1cccc(C2=N[C@@](C)(C(=O)O)CS2)c1O` [Example E, (S)-2-(2-hydroxy-3-(2-(2-(2-methoxyethoxy)ethoxy)ethoxy)phenyl)-4-methyl-4,5-dihydrothiazole-4-carboxylic acid]: the “Rodent ICE” value in data set [3] is listed as 10.6 ± 4.4%b. For the same compound, the “Primate ICE” value in data set [4] was 23.0 ± 4.1%.
Take `COCCOCCOCCOCCOc1cccc(C2=N[C@@](C)(C(=O)O)CS2)c1O` [Example F, (S)-2-(3-(2,5,8,11-tetraoxamidecan-13-yloxy)-2-hydroxyphenyl)-4-methyl-4,5-dihydrothiazole-4-carboxylic acid]: the “Rodent ICE” value in data set [3] is on record as 12.4 ± 1.7%. In addition, the “Primate ICE” value in data set [4] is given as 9.6 ± 4.9%.
In general, Solubility refers to the concentration that dissolves in the medium under given conditions. Take `O=C(O)Cc1ccccc1Nc1c(Cl)cccc1Cl` [diclofenac]: in data set [2] (setting [7]), the solubility at 2 h turned out to be 7.47 µM (≈ 2.21 µg/mL). For the same compound, in data set [2] (PBS pH 7.4, 25° C., 2 hours, assay upper limit 300 μM), the “Solubility at pH 7.4” value came out at 273.38 μM.
As a reminder, the LogD is lipophilicity at a set pH, counting ionised and neutral species. On to `COCCc1ccc(OCC(O)CNC(C)C)cc1` (centres unmarked) [metopolol], for which, in “physchem [1]” (pH 7.4), the LogD is given as −0.27.
In “physchem [1]”, `CC(=O)[C@H]1CC[C@H]2[C@@H]3CCC4=CC(=O)CC[C@]4(C)[C@H]3CC[C@]12C` [progesterone] displayed a logD at 1 h of 3.71.
